Experimental findings from US20100184815A1 (priority 2008, published 2010) are described below.

In one series the target is T1, Gal-4 hPPARα (Homo sapiens, UniProt Q07869).
T1 construct: Plasmids pGal4-hPPARα, pGal4-hPPARγ, pGal4-hPPARδ and pG5-TK-pGL3 were constructed as previously described by Staels, Bart, et al., Nature 1998 Jun; 25
T1 sequence (Q07869 200-468 limits assumed): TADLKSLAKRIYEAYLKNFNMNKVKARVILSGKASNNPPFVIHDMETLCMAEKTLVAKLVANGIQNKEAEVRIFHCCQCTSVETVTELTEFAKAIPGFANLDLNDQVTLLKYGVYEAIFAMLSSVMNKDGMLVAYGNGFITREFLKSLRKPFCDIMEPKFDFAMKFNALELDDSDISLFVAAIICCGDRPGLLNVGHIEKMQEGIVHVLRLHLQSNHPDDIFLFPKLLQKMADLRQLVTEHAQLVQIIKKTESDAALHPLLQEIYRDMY
The experiment in a line: Gal4-hPPARα transient transfection reporter assay in Cos cells. Format: cell-based. Particulars: luciferase reporter, 24 hours with compound, scale 1-5, read-out: Gal-4 hPPAR α EC50 (scaled number). The gist of the method:
(§1)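 Cos cells transiently co-transfected with Gal4-hPPAR expression plasmid, pG5-TK-pGL3 luciferase reporter and β-galactosidase control, then treated 24 h with increasing compound concentrations in DMEM containing 0.2% FCS. Luciferase normalised to β-galactosidase; EC50 from curve fit, at least three experiments.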
Background: Reporter assays use an easily measured gene product as a stand-in for the process of interest.

The target in a further series is T2, Gal-4 hPPARβ/δ (Homo sapiens, UniProt Q03181).
T2 construct: Plasmids pGal4-hPPARα, pGal4-hPPARγ, pGal4-hPPARδ and pG5-TK-pGL3 were constructed as previously described by Staels, Bart, et al., Nature 1998 Jun; 25
T2 sequence (Q03181 171-441 limits assumed): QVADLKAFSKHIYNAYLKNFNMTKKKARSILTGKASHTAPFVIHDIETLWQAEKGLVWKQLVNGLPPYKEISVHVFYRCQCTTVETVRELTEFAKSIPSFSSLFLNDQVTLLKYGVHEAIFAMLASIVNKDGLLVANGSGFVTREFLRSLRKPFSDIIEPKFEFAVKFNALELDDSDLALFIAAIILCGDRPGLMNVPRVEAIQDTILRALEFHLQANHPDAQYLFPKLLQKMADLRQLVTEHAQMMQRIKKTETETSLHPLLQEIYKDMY
The experiment in a line: Gal4-hPPARδ transient transfection reporter assay in Cos cells. Format: cell-based. The note with it: luciferase reporter, 24 hours with compound, scale 1-5, read-out: Gal-4 hPPAR β/δ EC50 (scaled number). The gist of the method:
as §1

The next series concerns the target T3, Full Length hPPARα (Homo sapiens, UniProt Q07869).
T3 construct: Full Length; expressed in transfected cells; host or cells: Cos cells
T3 sequence (Q07869 1-468): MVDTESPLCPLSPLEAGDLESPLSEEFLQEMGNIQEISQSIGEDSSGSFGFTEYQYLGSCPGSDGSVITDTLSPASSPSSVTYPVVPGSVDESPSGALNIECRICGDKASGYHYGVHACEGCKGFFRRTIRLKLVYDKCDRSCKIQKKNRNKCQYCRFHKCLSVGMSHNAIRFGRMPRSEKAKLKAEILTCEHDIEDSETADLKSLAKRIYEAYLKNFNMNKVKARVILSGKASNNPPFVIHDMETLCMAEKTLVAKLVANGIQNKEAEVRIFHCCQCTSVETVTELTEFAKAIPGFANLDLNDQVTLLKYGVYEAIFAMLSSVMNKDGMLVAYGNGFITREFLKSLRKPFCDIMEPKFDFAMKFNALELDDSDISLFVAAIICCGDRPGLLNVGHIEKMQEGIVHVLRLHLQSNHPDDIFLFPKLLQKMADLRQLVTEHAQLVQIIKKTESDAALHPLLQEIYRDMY
The series can be described thus: Full length hPPARα transfection assay. Format: cell-based. The note with it: full length receptor; read-out: Full Length hPPAR α EC50 (scaled number). As for the experimental part: Transient transfection assays. Cos cells were seeded in 60-mm dishes at a density of 5.5×10^5 cells/dish in Dulbecco's modified Eagle's medium (DMEM) supplemented with 10% fetal calf serum (FCS) and incubated at 37° C. for 24 hours before transfection. Cells were transfected in Opti-MEM (Gibco; Invitrogen, Carlsbad, Calif.) without FCS for 3 hours at 37° C., using polyethylenimine, with reporter and expression plasmids. The plasmid pBluescript (Stratagene, La Jolla, Calif.) was used as carrier DNA to set the final amount of DNA to 5.5 μg/dish. The pCMV-b-galactosidase expression plasmid was cotransfected as a control for transfection efficiency. Transfection was stopped by the addition of DMEM supplemented with 10% FCS, and cells were then incubated at 37° C. After 16 hours, cells were trypsinized and seeded in 96-well plates at the density of 2×10^4 cells/well and incubated for 6 hours in 10% FCS-containing DMEM. Cells were then incubated for 24 hours in DMEM containing 0.2% FCS and increasing concentrations of the compound tested or vehicle (DMSO). At the end of the experiment, cells were washed once with ice-cold PBS, lysed and the luciferase and b-galactosidase assays were performed in a luminometer and spectrophotomer. Transfection efficiencies were normalized with the b-galactosidase activity assay. Half-maximal effective concentration (EC50) was estimated using Prism software (GraphPad). All transfection experiments were performed at least three times.
In the following tables, proprietary compound EC50 values for hPPAR α, β, δ and γ are shown. The EC50 value is the concentration of a drug that induces a response halfway between the baseline and maximum, and is commonly used as a measure of drug potency. EC50 values are reported on a scale of 1 through 5, wherein the value scale is defined for each receptor as follows: […]

Another series concerns pig liver esterase. The experiment in a line: Metabolism studies using pig liver esterase. Format: in vitro ADME. The note with it: 37° C. Here is the method: The esterase-mediated metabolism of these compounds was studied using commercially available pig liver esterase in the presence and absence of human plasma proteins. The disappearance of parent was monitored over the time course of the incubations using a LC-UV detection system.
A stock solution and working stock solution was prepared for each proprietary compound as described for the human liver microsomal incubations. Working solutions of pig liver esterase in potassium phosphate buffer ([…], pH 7.4) and pig liver esterase in human plasma protein were prepared by dissolving pig liver esterase (2.51 mg) in the phosphate buffer or plasma protein solutions, respectively.
A set of three Eppendorf microfuge tubes (1.5 mL) was appropriately labeled. To each tube was added 1.5 mL of phosphate buffer, pig liver esterase in buffer, or pig liver esterase in human plasma protein solution. These solutions were pre-incubated (37° C., 900 rpm) and the reactions were initiated by adding an aliquot (37.5 μL) of the working solution of proprietary compound to each tube. An aliquot (100 μL) from each tube was removed at time 0, 5, 30, 60, and 120 min and added to a tube containing acetonitrile (200 μL) to stop the reaction.
The samples were centrifuged at 14000 g for 15 minutes at 4° C. The supernatant was transferred to clean labeled HPLC injection vials and stored at −80° C. until analyzed. An aliquot of the supernatant (25 μL) was injected onto the LC-UV system for analysis.
Half lives of a sample of test articles is noted in the following table. Half life was determined in the presence or absence of plasma.

Setting [1] is: pig liver esterase in human plasma protein solution.
[2] abbreviates: pig liver esterase in phosphate buffer pH 7.4, no plasma, read-out: Pig Liver Esterase (t1/2 min.) (−) Plasma.
[3] abbreviates: pig liver esterase in human plasma protein solution, read-out: Pig Liver Esterase (t1/2 min.) (+) Plasma.

Read-outs that look alike come from different tables or passages of the source. Bounds are passed on as bounds.

For `CCCCCCCCn1c(COC(=O)c2ccc(OC(C)(C)C(=O)O)c(OC)c2)nn(Cc2ccc(C)cc2)c1=O` [Compound 186, 2-(2-methoxy-4-(((1-(4-methylbenzyl)-4-octyl-5-oxo-4,5-dihydro-1H-1,2,4-triazol-3-yl)methoxy)carbonyl)phenoxy)-2-methylpropanoic acid], the EC50 on Gal-4 hPPARα is 0.001 to 0.05 µM; on Gal-4 hPPARβ/δ, over 1 µM; at Full Length hPPARα it was 0.051 to 0.2 µM. Besides, the “Pig Liver Esterase (t1/2 min.) (+) Plasma” value (“Pig Liver Esterase” below) with pig liver esterase (setting [1]) was “Stable”. For the same molecule, the half-life at 4.9 µM in the series on pig liver esterase (setting [2]) was determined as 45 min.
As for `CC(C)(Sc1ccc(C(=O)OCCc2cn(Cc3ccc(C(F)(F)F)cc3)nn2)cc1)C(=O)O` [Compound 91, 2-methyl-2-(4-((2-(1-(4-(trifluoromethyl)benzyl)-1H-1,2,3-triazol-4-yl)ethoxy)carbonyl)phenylthio)propanoic acid], the EC50 is 0.201 to 0.999 µM at Gal-4 hPPARα and over 1 µM on Gal-4 hPPARβ/δ. Also, the half-life at 4.9 µM was over 120 min in the series with pig liver esterase (setting [3]) and 64 min in the series with pig liver esterase (setting [2]).
Take `Cc1ccc(Cn2cc(COC(=O)c3ccc(SC(C)(C)C(=O)O)cc3)nn2)cc1` [Compound 60, 2-methyl-2-(4-(((1-(4-methylbenzyl)-1H-1,2,3-triazol-4-yl)methoxy)carbonyl)phenylthio)propanoic acid]: the EC50 on Gal-4 hPPARα is 0.001 to 0.05 µM; at Gal-4 hPPARβ/δ, over 1 µM; on Full Length hPPARα, 0.001 to 0.05 µM. Moreover, the half-life at 4.9 µM was found to be 89 min with pig liver esterase (setting [3]) and 31 min in the series with pig liver esterase (setting [2]).
With `CCCc1nn(Cc2ccc(C(F)(F)F)cc2)cc1COC(=O)c1ccc(SC(C)(C)C(=O)O)cc1` [Compound 12, 2-methyl-2-(4-(((3-propyl-1-(4-(trifluoromethyl)benzyl)-1H-pyrazol-4-yl)methoxy)carbonyl)phenylthio)propanoic acid], the EC50 at Gal-4 hPPARα was 0.051 to 0.2 µM; at Gal-4 hPPARβ/δ, over 1 µM. Besides, the half-life at 4.9 µM with pig liver esterase (setting [3]) was 61 min; with pig liver esterase (setting [2]), under 5 min.
Take `CCCn1c(COC(=O)c2ccc(OC(C)(C)C(=O)O)cc2)nn(Cc2ccc(C(C)(C)C)cc2)c1=O` [Compound 150, 2-(4-(((1-(4-tert-butylbenzyl)-5-oxo-4-propyl-4,5-dihydro-1H-1,2,4-triazol-3-yl)methoxy)carbonyl)phenoxy)-2-methylpropanoic acid]: the EC50 was 0.001 to 0.05 µM at Gal-4 hPPARα, over 1 µM on Gal-4 hPPARβ/δ and 0.001 to 0.05 µM on Full Length hPPARα. Also, in the series on pig liver esterase (setting [1]), the “Pig Liver Esterase” value was “Stable”. For the same molecule, the half-life at 4.9 µM in the series on pig liver esterase (setting [2]) stood at 31 min.
For the molecule `CCCCCCn1c(COC(=O)c2ccc(SC(C)(C)C(=O)O)cc2)nn(Cc2ccc(C(C)(C)C)cc2)c1=O` [Compound 187, 2-(4-(((1-(4-tert-butylbenzyl)-4-hexyl-5-oxo-4,5-dihydro-1H-1,2,4-triazol-3-yl)methoxy)carbonyl)phenylthio)-2-methylpropanoic acid], the EC50 at Gal-4 hPPARα is 0.001 to 0.05 µM; at Gal-4 hPPARβ/δ it was over 1 µM; on Full Length hPPARα it was under 0.001 µM. Moreover, the values for the half-life at 4.9 µM in the series with pig liver esterase (setting [3]) and in the series with pig liver esterase (setting [2]) were 64 min and 26 min, respectively.
As for `CC(C)(Sc1ccc(C(=O)OCc2cn(Cc3ccc(C(C)(C)C)cc3)nn2)cc1)C(=O)O` [Compound 69, 2-(4-(((1-(4-tert-butylbenzyl)-1H-1,2,3-triazol-4-yl)methoxy)carbonyl)phenylthio)-2-methylpropanoic acid], the EC50 on Gal-4 hPPARα was 0.001 to 0.05 µM; at Gal-4 hPPARβ/δ, over 1 µM. The half-life at 4.9 µM amounted to 126 min in the series on pig liver esterase (setting [3]) and 14 min in the series with pig liver esterase (setting [2]).
With `CCCCCCCCn1c(COC(=O)c2ccc(OC(C)(C)C(=O)O)cc2)nn(Cc2ccc(C)cc2)c1=O` [Compound 152, 2-methyl-2-(4-(((1-(4-methylbenzyl)-4-octyl-5-oxo-4,5-dihydro-1H-1,2,4-triazol-3-yl)methoxy)carbonyl)phenoxy)propanoic acid], the EC50 at Gal-4 hPPARα is 0.051 to 0.2 µM; at Gal-4 hPPARβ/δ, over 1 µM; on Full Length hPPARα it was under 0.001 µM. For the same molecule, the “Pig Liver Esterase” value in the series on pig liver esterase (setting [1]) is given as “Stable”. Moreover, the half-life at 4.9 µM in the series with pig liver esterase (setting [2]) turned out to be 30 min.
Take `CCCCCCCn1c(COC(=O)c2ccc(SC(C)(C)C(=O)O)cc2)nn(Cc2ccc(C(C)(C)C)cc2)c1=O` [Compound 189, 2-(4-(((1-(4-tert-butylbenzyl)-4-heptyl-5-oxo-4,5-dihydro-1H-1,2,4-triazol-3-yl)methoxy)carbonyl)phenylthio)-2-methylpropanoic acid]: the EC50 on Gal-4 hPPARα is 0.001 to 0.05 µM; on Gal-4 hPPARβ/δ it was over 1 µM; at Full Length hPPARα, under 0.001 µM. In addition, the half-life at 4.9 µM was 105 min in the series on pig liver esterase (setting [3]) and under 5 min in the series on pig liver esterase (setting [2]).
For the molecule `COC(c1ccc(Cn2cc(COC(=O)c3ccc(SC(C)(C)C(=O)O)cc3)nn2)cc1)(C(F)(F)F)C(F)(F)F` [Compound 75, 2-(4-(((1-(4-(1,1,1,3,3,3-hexafluoro-2-methoxypropan-2-yl)benzyl)-1H-1,2,3-triazol-4-yl)methoxy)carbonyl)phenylthio)-2-methylpropanoic acid], the EC50 at Gal-4 hPPARα is 0.051 to 0.2 µM; on Gal-4 hPPARβ/δ, over 1 µM. Also, the half-life at 4.9 µM in the series on pig liver esterase (setting [3]) turned out to be 160 min; in the series with pig liver esterase (setting [2]), 29 min.
Regarding `Cc1ccc(Cn2cc([C@@H](C)OC(=O)c3ccc(SC(C)(C)C(=O)O)cc3)nn2)cc1` [Compound 87, (R)-2-methyl-2-(4-((1-(1-(4-methylbenzyl)-1H-1,2,3-triazol-4-yl)ethoxy)carbonyl)phenylthio)propanoic acid], the EC50 on Gal-4 hPPARα was 0.001 to 0.05 µM; on Gal-4 hPPARβ/δ, over 1 µM. Also, the half-life at 4.9 µM amounted to 83 min in the series on pig liver esterase (setting [3]) and 19 min in the series with pig liver esterase (setting [2]).
